Reference: PubChem BioAssay AID2060883 (Molecular Pharmacology Branch, DTP, NCI, 2025)
Several values for one entry are separate records, joined by “and”; a condition that tells them apart may be missing. Equal values may be shown once.

System: 843782-103-R-J1-PDC complex spheroid viability
Assay: Anticancer human tumor 843782-103-R-J1-PDC patient-derived lung adenocarcinoma cell line growth inhibition [RAS]
Settings: for viability, T/C: stronger effect = lower value
Description: RAS pathway inhibitors in Combinations in Complex Spheroids
A high-throughput screen of multi-cell type tumor spheroids was designed to identify active combinations of RAS pathway inhibitors and targeted small molecules. Complex spheroids include a stromal component modeled by human endothelial cells (HUVEC) and fibroblasts modeled by human mesenchymal stem cells (MSCs). The concentration ranges selected for each drug and investigational agent were based upon clinically achievable concentrations if the clinical Cmax of the agent was known.
Compounds. The drugs and investigational agents: abemaciclib (NSC768073), cobimetinib (NSC768068), divarasib (GDC6063, NSC841802), docetaxel (NSC628503), GDC-1971 (RLY-1971, NSC841576), gemcitabine (NSC613327), inavolisib (NSC800729), ipatasertib (NSC767898), KB-0742 (NSC834161), MRTX-1133 (NSC836407), osimertinib (NSC779217), RMC-4630 (NSC839698), RMC-6236 (NSC851965), RMC-6291 (NSC852671), Ro-3306 (NSC812927), sapanisertib (NSC764658), SN-38 (NSC673596), staurosporine (NSC755774), SY5609 (NSC837396), and tovorafenib (DAY101, NSC766906), were obtained from the National Cancer Institute (NCI) Developmental Therapeutics Program Chemical Repository. The FDA-approved anticancer drug set is available from the NCI Developmental Therapeutics Program. […] The stock solutions were prepared in dimethyl sulfoxide (DMSO, Sigma-Aldrich, St. Louis, MO, cat. D2650) at 800-fold the tested concentration and stored at -70 degrees C prior to their use. All drugs and investigational agents were tested over a range starting from a high concentration at or near the clinical Cmax and decreasing in half-log increments. If the clinical Cmax for an agent had not been determined, the highest concentration tested was 10 microM.
Cell Culture. All cells were maintained in an incubator at 37 degrees C and 5% CO2 with 95% humidity. The PDC lines were cultured according to standard operating procedures established by the NCI PDMR. All PDCs were thawed and cultured in Matrigel-coated flasks prepared with a working solution of 1X Ham's F-12 nutrient mix, without supplementation (Invitrogen, Waltham, MA, cat. 11765054), 100 U/mL penicillin-streptomycin (Invitrogen, cat. 15140122), and 2.5% Matrigel (Corning Inc., Corning, NY, cat. 354248) for the first three passages. The 362531-283-R-J2-PDC and 782815-120-R-J1-PDC lines were cultured in 6C/Colon 1B media, which includes advanced DMEM/F-12 (Thermo Fisher Scientific, cat. 12634028), 10 mM HEPES (Thermo Fisher Scientific, cat. 15630080), 1X GlutaMAX supplement (Thermo Fisher Scientific, cat. 35050061), 0.1 mg/mL primocin (InvivoGen, San Diego, CA, cat. ant-pm-2), 10% defined fetal bovine serum, heat inactivated (HyClone Laboratories Inc., Logan, UT, cat. SH30070.03HI), 50% L-WRN conditioned media (ATCC, cat. CRL-3276), 1.25 mM N-Acetyl-L-cysteine (Sigma-Aldrich, cat. A9165), 10 mM nicotinamide (Sigma-Aldrich, cat. N0636), 1X B-27 supplement (Thermo Fisher Scientific, cat. 17504044), 1X N-2 supplement (Thermo Fisher Scientific, cat. 17502048), 50 ng/mL human EGF (Thermo Fisher Scientific, cat. PHG0311), and 10 microM Y-27632 dihydrochloride (Tocris Bioscience, cat. 1254). The K12877-001-R-J1-PDC line was cultured in 6I media, which includes all 6C/Colon 1B media plus 10 ng/mL human FGF-10 (PeproTech, cat. 100-26), 1 ng/mL human FGF-2 (PeproTech, cat. 100-18B), 1 µM prostaglandin E2 (Tocris Bioscience, cat. 2296), […] hydrocortisone (Sigma-Aldrich, cat. H4001), and […] bovine insulin (Sigma-Aldrich, cat. I6634). The K86415-001-R-J1-PDC line was cultured in 6D media, which includes all 6C/Colon 1B media components minus the L-WRN conditioned media. The 485176-168-R4-J1-PDC was cultured in PANC media, which includes all 6C/Colon 1B media plus 100 ng/mL human FGF-10 (PeproTech, cat. 100-26), 500 nM SB-431542 (Selleckchem, cat. S1067), and 10 nM gastrin (Tocris Bioscience, cat. 3006). […]
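Note: viability read after seven days of compound exposure.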

`C#Cc1c(F)ccc2cc(O)cc(-c3ncc4c(N5CC6CCC(C5)N6)nc(OCC56CCCN5CC(F)C6)nc4c3F)c12` (configuration not stated) was tested, and the viability, T/C (compound 0.0316 µM) was 104% [middle of 8 runs], the viability, T/C (compound 0.1 µM) was 106% [middle of 8 runs] and the viability, T/C (compound 0.316 µM) was 106% [middle of 8 runs]. The viability, T/C (compound 1 µM) was 101% [middle of 8 runs], the viability, T/C (compound 3.16 µM) was 85.1% [middle of 8 runs] and the viability, T/C (compound 10 µM) was 59.7% [middle of 8 runs]. For the same molecule, the IC50 (compound alone, run of 09/09/2024) was > 10000 nM and 8730 nM.

For `CC(=O)OC12COC1CC(O)C1(C)C(=O)C(O)C3=C(C)C(OC(=O)C(O)C(NC(=O)OC(C)(C)C)c4ccccc4)CC(O)(C(OC(=O)c4ccccc4)C21)C3(C)C` (configuration not stated), the viability, T/C (compound 0.0316 µM) was 3.82% [middle of 4 runs], the viability, T/C (compound 0.1 µM) was 4.87% [middle of 4 runs] and the viability, T/C (compound 0.316 µM) was 5.01% [middle of 4 runs]. For the same molecule, the viability, T/C (compound 1 µM) was 4.69% [middle of 4 runs], the viability, T/C (compound 3.16 µM) was 6.26% [middle of 4 runs] and the viability, T/C (compound 10 µM) was 8.18% [middle of 4 runs]. The IC50 (curve of compound) was under 31.6 nM.

`CC(C)NCC(C(=O)N1CCN(c2ncnc3c2C(C)CC3O)CC1)c1ccc(Cl)cc1` (configuration not stated) was tested, and the viability, T/C (compound 0.0316 µM) was 106% (2×) and 97% and 95.9%, the viability, T/C (compound 0.1 µM) was 96.2% [middle of 4 runs] and the viability, T/C (compound 0.316 µM) was 92.3% [middle of 4 runs]. The viability, T/C (compound 1 µM) was 62.4% [middle of 4 runs], the viability, T/C (compound 3.16 µM) was 30% [middle of 4 runs] and the viability, T/C (compound 10 µM) was 13.7% [middle of 4 runs]. The IC50 (curve of compound) was 1.54 µM [middle of 4 runs].

`CC(Nc1ccc2c(c1)OCCn1cc(N3C(=O)OCC3C(F)F)nc1-2)C(N)=O` (configuration not stated) was tested, and the viability, T/C (compound 0.0316 µM) was 95.9% [middle of 4 runs], the viability, T/C (compound 0.316 µM) was 50.3% [middle of 4 runs] and the viability, T/C (compound 1 µM) was 38.3% [middle of 4 runs]. The viability, T/C (compound 3.16 µM) was 26.1% [middle of 4 runs] and the viability, T/C (compound 10 µM) was 16.3% [middle of 4 runs].

With `CC1(O)CCCC1n1c(=O)c(C(F)F)cc2cnc(NC3CCN(S(C)(=O)=O)CC3)nc21` (configuration not stated) the viability, T/C (compound 0.0316 µM) was 103% [middle of 4 runs], the viability, T/C (compound 0.316 µM) was 31.9% [middle of 4 runs] and the viability, T/C (compound 1 µM) was 37.1% [middle of 4 runs]. For the same molecule, the viability, T/C (compound 3.16 µM) was 23.7% [middle of 4 runs], the viability, T/C (compound 10 µM) was 3.54% [middle of 4 runs] and the IC50 (curve of compound) was 307 nM [middle of 4 runs].

In the case of `CCC(CC)c1cc(NC2CCC(N)C2)n2nccc2n1` (configuration not stated), the viability, T/C (compound 0.0316 µM) is reported as 114% and 109% and 101% (2×), the viability, T/C (compound 0.1 µM) is reported as 107% [middle of 4 runs] and the viability, T/C (compound 0.316 µM) is reported as 101% [middle of 4 runs]. The viability, T/C (compound 3.16 µM) was 2.11% [middle of 4 runs], the viability, T/C (compound 10 µM) was 0.82% [middle of 4 runs] and the IC50 (curve of compound) was 1.78 µM [middle of 4 runs].

For `C[C@@H](NC(=O)c1ncnc(N)c1Cl)c1ncc(C(=O)Nc2cc(C(F)(F)F)c(Cl)cn2)s1`, the viability, T/C (compound 0.0316 µM) was 103% and 104% and 109% (2×), the viability, T/C (compound 0.1 µM) was 105% [middle of 4 runs] and the viability, T/C (compound 0.316 µM) was 99.7% [middle of 4 runs]. The viability, T/C (compound 1 µM) was 104% (2×) and 113% and 98%, the viability, T/C (compound 3.16 µM) was 109% [middle of 4 runs] and the viability, T/C (compound 10 µM) was 103% [middle of 4 runs]. For the same molecule, the IC50 (curve of compound) was over 10000 nM.

For `Cc1nc(N2CCC3(CC2)COC(C)C3N)c(CO)nc1Sc1ccnc(N)c1Cl` (configuration not stated), the viability, T/C (compound 0.0316 µM) was 105% [middle of 4 runs], the viability, T/C (compound 3.16 µM) was 64.6% [middle of 4 runs] and the viability, T/C (compound 10 µM) was 49% [middle of 4 runs].

`NC1c2ccccc2OC12CCN(c1cnc3c(N4CCCc5ncccc54)n[nH]c3n1)CC2` (configuration not stated) was tested, and the viability, T/C (compound 3.16 µM) was 51.5% [middle of 4 runs] and the viability, T/C (compound 10 µM) was 34.7% [middle of 4 runs].

Molecule `C=CC(=O)Nc1cc(Nc2nccc(-c3cn(C)c4ccccc34)n2)c(OC)cc1N(C)CCN(C)C` + C#Cc1c(F)ccc2cc(O)cc(-c3ncc4c(N5CC6CCC(C5)N6)nc(OCC56CCCN5CC(F)C6)nc4c3F)c12 has an IC50 (curve of first compound, second compound 0.0316 µM) of over 1000 nM, an IC50 (curve of first compound, second compound 0.1 µM) of over 1000 nM and an IC50 (curve of first compound, second compound 0.316 µM) of over 1000 nM. The IC50 (curve of first compound, second compound 1 µM) was 595 nM, the IC50 (curve of first compound, second compound 3.16 µM) was 231 nM and the IC50 (curve of first compound, second compound 10 µM) was 57.6 nM. For the same molecule, the viability, T/C (second compound 0.0316 µM, first compound 0.00316 µM) was 108%, the viability, T/C (second compound 0.0316 µM, first compound 0.01 µM) was 98.2% and the viability, T/C (second compound 0.0316 µM, first compound 0.0316 µM) was 101%. The viability, T/C (second compound 0.0316 µM, first compound 0.1 µM) was 96.9%, the viability, T/C (second compound 0.0316 µM, first compound 0.316 µM) was 94.6% and the viability, T/C (second compound 0.0316 µM, first compound 1 µM) was 55.4%. The viability, T/C (second compound 0.1 µM, first compound 0.00316 µM) was 104%, the viability, T/C (second compound 0.1 µM, first compound 0.01 µM) was 94.7% and the viability, T/C (second compound 0.1 µM, first compound 0.0316 µM) was 102%. It also gave a viability, T/C (second compound 0.1 µM, first compound 0.1 µM) of 97%, a viability, T/C (second compound 0.1 µM, first compound 0.316 µM) of 88.2% and a viability, T/C (second compound 0.1 µM, first compound 1 µM) of 64.2%. For the same molecule, the viability, T/C (second compound 0.316 µM, first compound 0.00316 µM) was 105%, the viability, T/C (second compound 0.316 µM, first compound 0.01 µM) was 99.4% and the viability, T/C (second compound 0.316 µM, first compound 0.0316 µM) was 101%. It also gave a viability, T/C (second compound 0.316 µM, first compound 0.1 µM) of 93.9%, a viability, T/C (second compound 0.316 µM, first compound 0.316 µM) of 80% and a viability, T/C (second compound 0.316 µM, first compound 1 µM) of 54.4%. The viability, T/C (second compound 1 µM, first compound 0.00316 µM) was 97%, the viability, T/C (second compound 1 µM, first compound 0.01 µM) was 90.7% and the viability, T/C (second compound 1 µM, first compound 0.0316 µM) was 99.9%. It also gave a viability, T/C (second compound 1 µM, first compound 0.1 µM) of 88.9%, a viability, T/C (second compound 1 µM, first compound 0.316 µM) of 65.3% and a viability, T/C (second compound 1 µM, first compound 1 µM) of 37.6%. The viability, T/C (second compound 3.16 µM, first compound 0.00316 µM) was 90.3%, the viability, T/C (second compound 3.16 µM, first compound 0.01 µM) was 81.6% and the viability, T/C (second compound 3.16 µM, first compound 0.0316 µM) was 88%. The viability, T/C (second compound 3.16 µM, first compound 0.1 µM) was 63.6%, the viability, T/C (second compound 3.16 µM, first compound 0.316 µM) was 46% and the viability, T/C (second compound 3.16 µM, first compound 1 µM) was 33.3%. For the same molecule, the viability, T/C (second compound 10 µM, first compound 0.00316 µM) was 55.9%, the viability, T/C (second compound 10 µM, first compound 0.01 µM) was 54% and the viability, T/C (second compound 10 µM, first compound 0.0316 µM) was 56.5%. It also gave a viability, T/C (second compound 10 µM, first compound 0.1 µM) of 44.7%, a viability, T/C (second compound 10 µM, first compound 0.316 µM) of 33.1% and a viability, T/C (second compound 10 µM, first compound 1 µM) of 4.02%.
